{
  "source": "ChEMBL document CHEMBL6134834",
  "about": "“Aromatic nitroolefin with inhibition efficacy in triple-negative breast cancer cells by dual targeting RXRα and tubulins” (Eur J Med Chem, 2025)",
  "assay": "Binding affinity to mouse brain tubulin assessed as dissociation constant by SPR analysis",
  "data": [
    {"smiles": "O=[N+]([O-])CCc1cccc2ccccc12", "values": [
      {"measurement": "Kd", "value": 80.9, "unit": "µM"}
    ]}
  ]
}
